Assays:
[1] = In situ brain perfusion, single time-point method
Procedure: Animals used in this study were Sprague-Dawley rats (approximate weight 250-300 grams), obtained from Hilltop Lab Animals, Scottdale, Pa. Upon arrival, the rats were assigned randomly to treatment groups and acclimated for at least 24 hours. The animals were housed two per cage and identified by cage labels. A single room was used for this study. The animals were supplied with water and a commercial rodent diet ad libitum. On the day of the experiment, each rat was anesthetized intraperitoneally with Ketamine HCl/Xylazine HCl solution prior to being implanted with a cannula into the left carotid artery. Branch arteries were […], and the cardiac supply was cut off prior to brain perfusion.
Perfusion was performed using the single time-point method. […] Following 30 seconds of perfusion, the pump was stopped, and the brain was removed from the skull immediately. The brain was cut longitudinally in […]. Each left cerebral hemisphere was placed into a chilled tube, frozen on dry ice, and stored frozen at −60° C. to −80° C. until analyzed. […] Test articles were perfused at concentrations of 50 μM. The outline of the experimental treatments and the target and measured concentrations of the test articles and control compounds in the perfusate are presented in Table 3.
The left brain hemisphere from each rat was thawed and weighed. Methanol (20% aqueous) was added to each left brain hemisphere at approximately 4 mL per 1 g of brain tissue, and the mixture was homogenized using sonication with a VirSonic Ultrasonic Cell Disruptor 100 (VirTis). The test articles and two reference compounds were analyzed in the resulting homogenate by using LC/MS/MS.
The unidirectional brain transfer constants Kin (mL/g/min) were determined for the test articles and the high permeability reference, antipyrine, using the following equation for the single-point perfusion assay: […]
where: Cbr/Cpf is the apparent brain distribution volume (mL/g of brain tissue); Cbr is the concentration of drug in the brain tissue (pmol of drug per g of brain tissue); Cpf is the drug concentration in the perfusion fluid (pmol/mL of perfusate); and t is the net perfusion time (minutes).
Graphic representation and statistical analyses of the data were performed using GraphPad Prism software.

[2] = Permeation across cultured human respiratory epithelium (EpiAir tissue), apical-to-basolateral Papp; settings: human, pH 7.4, Papp
Excerpt: (§1) An in vitro model of MatTek EpiAir® tissue was used for the permeability assessment of the test articles and control compounds. The EpiAir® culture consists of cells that have been cultured to form a pseudo-stratified, highly differentiated model closely resembling the epithelial tissue of the human respiratory tract. The histological cross-sections of the cultured tissue reveal a pseudo-stratified mucociliary phenotype.
(§2) EpiAir® tissues plated in 12 well plates were pre-equilibrated for the assay by culturing them for 24 hours at 37° C. with 5% CO2 in a humidified incubator. On the day of the assay, the cultures were washed two times with Dulbeccos' Phosphate Buffered Saline (DPBS buffer) at pH 7.4, and then dosed with donor and receiver buffer applied to the apical and basolateral surfaces of the culture, respectively. The receiver buffer consisted of DPBS, at pH 7.4. The donor solution consisted of DPBS buffer containing the appropriate compounds as specified in Table 1. All treatments were performed in triplicate. The receiver buffer was sampled at 15, 30, 60, and 120 minutes, and the donor buffer was sampled at 120 minutes.
(§3) The Lucifer Yellow concentration in the receiver samples was measured using a FluoStar fluorescence plate reader (BMG Laboratories, Durham, N.C.).
(§4) The apparent permeability coefficient, Papp, was calculated as follows: […]
(§5) where: dCr/dt is the slope of the cumulative concentration in the receiver compartment versus time; Vr is the volume of the receiver compartment; A is the surface area of epithelium available for permeation; and Co is the dosing solution concentration.

[3] = system: cultured human respiratory epithelium; assay: in vitro
Excerpt: as §1, §2, §3, §4, §5

[4] = Table 4 Treatment 1: Compound B perfused with references, Average ± STD
[5] = Table 4 Treatment 1: Compound B perfused with references, Rat 1
[6] = Table 4 Treatment 1: Compound B perfused with references, Rat 2
[7] = Table 4 Treatment 1: Compound B perfused with references, Rat 3
[8] = Table 4 Treatment 2: Compound B perfused with references + MAO inhibitor Pargyline, Average ± STD
[9] = Table 4 Treatment 2: Compound B perfused with references + MAO inhibitor Pargyline, Rat 1
[10] = Table 4 Treatment 2: Compound B perfused with references + MAO inhibitor Pargyline, Rat 2
[11] = Table 4 Treatment 2: Compound B perfused with references + MAO inhibitor Pargyline, Rat 3
[12] = Table 5 Treatment 1: Compound A perfused with references, Average ± STD
[13] = Table 5 Treatment 1: Compound A perfused with references, Rat 1
[14] = Table 5 Treatment 1: Compound A perfused with references, Rat 2
[15] = Table 5 Treatment 1: Compound A perfused with references, Rat 3
[16] = Table 5 Treatment 2: Compound A perfused with references + CYP2D6 inhibitor Quinidine, Average ± STD
[17] = Table 5 Treatment 2: Compound A perfused with references + CYP2D6 inhibitor Quinidine, Rat 1
[18] = Table 5 Treatment 2: Compound A perfused with references + CYP2D6 inhibitor Quinidine, Rat 2
[19] = Table 5 Treatment 2: Compound A perfused with references + CYP2D6 inhibitor Quinidine, Rat 3
[20] = Treatment 3: MAO substrate Phenylethylamine assayed with controls, Average ± STD
[21] = Treatment 3: MAO substrate Phenylethylamine assayed with controls, Rep 1
[22] = Treatment 3: MAO substrate Phenylethylamine assayed with controls, Rep 2
[23] = Treatment 3: MAO substrate Phenylethylamine assayed with controls, Rep 3
[24] = Treatment 4: Phenylethylamine assayed with controls + MAO inhibitor Pargyline, Average ± STD
[25] = Treatment 4: Phenylethylamine assayed with controls + MAO inhibitor Pargyline, Rep 1
[26] = Treatment 4: Phenylethylamine assayed with controls + MAO inhibitor Pargyline, Rep 2
[27] = Treatment 4: Phenylethylamine assayed with controls + MAO inhibitor Pargyline, Rep 3

Q: With `Cc1cc(=O)n(-c2ccccc2)n1C` [Antipyrine, reference compound] as the molecule, how does the “Brain Concentration (corrected for drug retained in vascular volume)” value (“Brain Concentration” for short) [1, 4] read?
A: 1083.1 ± 141.4 pmol/g

Q: What about the Kin [1, 4] of the same molecule?
A: 0.342 ± 0.045 mL/g/min

Q: What about the “Brain Concentration” value [1, 5] of the same molecule?
A: 1123.1 pmol/g

Q: And the Kin [1, 5]?
A: 0.355 mL/g/min

Q: And the “Brain Concentration” value [1, 6]?
A: 1200.2 pmol/g

Q: What about the Kin [1, 6] of the same molecule?
A: 0.379 mL/g/min

Q: And the “Brain Concentration” value [1, 7]?
A: 926.0 pmol/g

Q: And the Kin [1, 7]?
A: 0.292 mL/g/min

Q: What about the “Brain Concentration” value [1, 8] of the same molecule?
A: 888.5 ± 47.9 pmol/g

Q: And the Kin [1, 8]?
A: 0.300 ± 0.016 mL/g/min

Q: What about the “Brain Concentration” value [1, 9] of the same molecule?
A: 833.1 pmol/g

Q: What about the Kin [1, 9] of the same molecule?
A: 0.282 mL/g/min

Q: What about the “Brain Concentration” value [1, 10] of the same molecule?
A: 914.3 pmol/g

Q: What about the Kin [1, 10] of the same molecule?
A: 0.309 mL/g/min

Q: What about the “Brain Concentration” value [1, 11] of the same molecule?
A: 918.0 pmol/g

Q: And the Kin [1, 11]?
A: 0.310 mL/g/min

Q: And the “Brain Concentration” value [1, 12]?
A: 1157.1 ± 239.3 pmol/g

Q: What about the Kin [1, 12] of the same molecule?
A: 0.376 ± 0.078 mL/g/min

Q: What about the “Brain Concentration” value [1, 13] of the same molecule?
A: 1426.6 pmol/g

Q: What about the Kin [1, 13] of the same molecule?
A: 0.463 mL/g/min

Q: And the “Brain Concentration” value [1, 14]?
A: 1074.9 pmol/g

Q: And the Kin [1, 14]?
A: 0.349 mL/g/min

Q: What about the “Brain Concentration” value [1, 15] of the same molecule?
A: 969.7 pmol/g

Q: And the Kin [1, 15]?
A: 0.315 mL/g/min

Q: And the “Brain Concentration” value [1, 16]?
A: 1124.7 ± 135.5 pmol/g

Q: What about the Kin [1, 16] of the same molecule?
A: 0.386 ± 0.047 mL/g/min

Q: What about the “Brain Concentration” value [1, 17] of the same molecule?
A: 977.7 pmol/g

Q: What about the Kin [1, 17] of the same molecule?
A: 0.336 mL/g/min

Q: And the “Brain Concentration” value [1, 18]?
A: 1244.5 pmol/g

Q: And the Kin [1, 18]?
A: 0.427 mL/g/min

Q: What about the “Brain Concentration” value [1, 19] of the same molecule?
A: 1151.8 pmol/g

Q: What about the Kin [1, 19] of the same molecule?
A: 0.395 mL/g/min

Q: Which results are given for `NCCc1ccccc1` [Phenylethylamine]?
A: Papp at 120 min [2, 20]: 18.94 ± 0.1 ×10⁻⁶ cm/s; Papp at 120 min [2, 21]: 18.8 ×10⁻⁶ cm/s; Papp at 120 min [2, 22]: 18.9 ×10⁻⁶ cm/s; Papp at 120 min [2, 23]: 19 ×10⁻⁶ cm/s; Papp at 120 min [2, 24]: 35.2 ± 0.98 ×10⁻⁶ cm/s; Papp at 120 min [2, 25]: 34.5 ×10⁻⁶ cm/s; Papp at 120 min [2, 26]: 36.3 ×10⁻⁶ cm/s; Papp at 120 min [2, 27]: 34.7 ×10⁻⁶ cm/s; Permeation (Papp) in the presence of the MAO inhibitor Pargyline compared to alone [3]: significant increased

Q: Which results are given for Lucifer Yellow?
A: Papp ([3]; Treatment 1: Compound B assayed with controls, Average ± STD): 14.40 ± 0.37 ×10^−6 cm/s; Papp ([3]; Treatment 1: Compound B assayed with controls, Rep 1): 1.481e-05 cm/s; Papp ([3]; Treatment 1: Compound B assayed with controls, Rep 2): 1.411e-05 cm/s; Papp ([3]; Treatment 1: Compound B assayed with controls, Rep 3): 1.426e-05 cm/s; Papp ([3]; Treatment 2: Compound B assayed with controls + MAO inhibitor Pargyline, Average ± STD): 15.10 ± 0.11 ×10^−6 cm/s; Papp ([3]; Treatment 2: Compound B assayed with controls + MAO inhibitor Pargyline, Rep 1): 1.509e-05 cm/s; Papp ([3]; Treatment 2: Compound B assayed with controls + MAO inhibitor Pargyline, Rep 2): 1.5e-05 cm/s; Papp ([3]; Treatment 2: Compound B assayed with controls + MAO inhibitor Pargyline, Rep 3): 1.521e-05 cm/s; Papp [3, 20]: 14.82 ± 0.88 ×10^−6 cm/s; Papp [3, 21]: 1.561e-05 cm/s; Papp [3, 22]: 1.388e-05 cm/s; Papp [3, 23]: 1.499e-05 cm/s; Papp [3, 24]: 13.76 ± 0.46 ×10^−6 cm/s; Papp [3, 25]: 1.327e-05 cm/s; Papp [3, 26]: 1.382e-05 cm/s; Papp [3, 27]: 1.42e-05 cm/s; Papp ([3]; Treatment 5: Compound A assayed with controls, Average ± STD): 14.56 ± 1.33 ×10^−6 cm/s; Papp ([3]; Treatment 5: Compound A assayed with controls, Rep 1): 1.491e-05 cm/s; Papp ([3]; Treatment 5: Compound A assayed with controls, Rep 2): 1.309e-05 cm/s; Papp ([3]; Treatment 5: Compound A assayed with controls, Rep 3): 1.568e-05 cm/s; Papp ([3]; Treatment 7: CYP2D6 substrate Bufuralol assayed with controls, Average ± STD): 13.88 ± 0.56 ×10^−6 cm/s; Papp ([3]; Treatment 7: CYP2D6 substrate Bufuralol assayed with controls, Rep 1): 1.355e-05 cm/s; Papp ([3]; Treatment 7: CYP2D6 substrate Bufuralol assayed with controls, Rep 2): 1.357e-05 cm/s; Papp ([3]; Treatment 7: CYP2D6 substrate Bufuralol assayed with controls, Rep 3): 1.452e-05 cm/s

From patent publication US20100028447A1, “Intranasal, Buccal, And Sublingual Administration Of Metanicotine Analogs” (TARGACEPT, INC., priority 2007, published 2010)
